Tested on: HIV
Assay: MT4 Assay (anti-HIV activity)
Format: cell-based
Conditions: Human immunodeficiency virus 1, 96 h, read-out: HIV MT4 Assay IC50, HTLV-1 transformed cell line MT-4, cell titer glo, 10 point dose response curve
Outline: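 IC50 values were fitted to 10-point dose-response series (3-4-fold dilutions, range >1000-fold), normalized to no-compound control. CellTiter-Glo read-out was taken after 96 hours in HTLV-1-transformed MT-4 cells. Cytotoxicity was measured in parallel under identical conditions.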

Row | Compound | IC50 [µM]
1 | Cc1ccc(-c2c(C(OC(C)(C)C)C(=O)O)n(C)c(=O)c3cc(-c4cnn(C)c4)ccc23)cc1C (stereo not shown) [Example 192, [(1,1-dimethylethyl)oxy][4-(3,4-dimethylphenyl)-2-methyl-7-(1-methyl-1H-pyrazol-4-yl)-1-oxo-1,2-dihydro-3-isoquinolinyl]acetic acid] | 0.35
2 | Cc1ccc(-c2c(C(OC(C)(C)C)C(=O)O)n(C)c(=O)c3cc(-c4ccoc4C)ccc23)cc1C (stereo not shown) [Example 193, [(1,1-dimethylethyl)oxy][4-(3,4-dimethylphenyl)-2-methyl-7-(2-methyl-3-furanyl)-1-oxo-1,2-dihydro-3-isoquinolinyl]acetic acid] | 1.34
3 | Cc1ccc(-c2c(C(OC(C)(C)C)C(=O)O)n(C)c(=O)c3cc(CNS(C)(=O)=O)ccc23)cc1C (stereo not shown) [Example 187, 2-(tert-butoxy)-2-(4-(3,4-dimethylphenyl)-2-methyl-7-(methylsulfonamidomethyl)-1-oxo-1,2-dihydroisoquinolin-3-yl)acetic acid] | 22.9
4 | Cc1c(-c2c(C(OC(C)(C)C)C(=O)O)n(C)c(=O)c3cc(OCc4ccc(OC(F)(F)F)cc4)ccc23)ccc2c1CCCO2 (stereo not shown) [Example 146, 2-(tert-butoxy)-2-[2-methyl-4-(5-methyl-3,4-dihydro-2H-1-benzopyran-6-yl)-1-oxo-7-{[4-(trifluoromethoxy)phenyl]-methoxy}-1,2-dihydroisoquinolin-3-yl]acetic acid] | 0.26
5 | Cn1c(C(OC(C)(C)C)C(=O)O)c(-c2cccnc2)c2ccccc2c1=O (stereo not shown) [Example 41, 2-(tert-butoxy)-2-[2-methyl-1-oxo-4-(pyridin-3-yl)-1,2-dihydroisoquinolin-3-yl]acetic acid] | 50
6 | Cc1c(-c2c(C(OC(C)(C)C)C(=O)O)n(C)c(=O)c3cc(OCc4ccc(Cl)cc4)ccc23)ccc2c1CCCO2 (stereo not shown) [Example 136, 2-(tert-butoxy)-2-{7-[(4-chlorophenyl)methoxy]-2-methyl-4-(5-methyl-3,4-dihydro-2H-1-benzopyran-6-yl)-1-oxo-1,2-dihydroisoquinolin-3-yl}acetic acid] | 0.1
7 | Cc1n[nH]c(C)c1-c1ccc2c(-c3cc(F)c4c(c3C)CCCO4)c([C@H](OC(C)(C)C)C(=O)O)n(C)c(=O)c2c1 (atropisomer, axis not shown; (M)) [Example 196, (2S)(M)-[(1,1-dimethylethyl)oxy][7-(3,5-dimethyl-1H-pyrazol-4-yl)-4-(8-fluoro-5-methyl-3,4-dihydro-2H-chromen-6-yl)-2-methyl-1-oxo-1,2-dihydro-3-isoquinolinyl]ethanoic acid] | 1.16
8 | Cc1c(-c2c(C(OC(C)(C)C)C(=O)O)n(C)c(=O)c3cc(OCc4cccc(F)c4F)ccc23)ccc2c1CCCO2 (stereo not shown) [Example 96, 2-(tert-butoxy)-2-{7-[(2,3-difluorophenyl)methoxy]-2-methyl-4-(5-methyl-3,4-dihydro-2H-1-benzopyran-6-yl)-1-oxo-1,2-dihydroisoquinolin-3-yl}acetic acid] | 0.07
9 | Cc1c(-c2c([C@H](OC(C)(C)C)C(=O)O)n(C)c(=O)c3cc(-c4ccc(N(C)C)cc4)ccc23)cc(F)c2c1CCCO2 (atropisomer, axis not shown; (M)) [Example 199, (2S)(M)-[7-[4-(dimethylamino)phenyl]-4-(8-fluoro-5-methyl-3,4-dihydro-2H-chromen-6-yl)-2-methyl-1-oxo-1,2-dihydro-3-isoquinolinyl][(1,1-dimethylethyl)oxy]ethanoic acid] | 0.09
10 | Cc1c(-c2c([C@H](OC(C)(C)C)C(=O)O)n(C)c(=O)c3cc(C(=O)N4CCOCC4)ccc23)cc(F)c2c1CCCO2 (atropisomer, axis not shown; (M)) [Example 169, (S)(M)-2-(tert-butoxy)-2-(4-(8-fluoro-5-methylchroman-6-yl)-2-methyl-7-(morpholine-4-carbonyl)-1-oxo-1,2-dihydroisoquinolin-3-yl)acetic acid] | 22.5

Source: patent publication US9029391B2 (priority 2011, dated 2015)
